This experiment addresses T1, LHRH (Rattus norvegicus, UniProt P30969).
T1 construct: endogenous in cells; host or cells: rat pituitary cells (own knowledge of the cited Haviv 1989 method)
T1 sequence (P30969 1-327): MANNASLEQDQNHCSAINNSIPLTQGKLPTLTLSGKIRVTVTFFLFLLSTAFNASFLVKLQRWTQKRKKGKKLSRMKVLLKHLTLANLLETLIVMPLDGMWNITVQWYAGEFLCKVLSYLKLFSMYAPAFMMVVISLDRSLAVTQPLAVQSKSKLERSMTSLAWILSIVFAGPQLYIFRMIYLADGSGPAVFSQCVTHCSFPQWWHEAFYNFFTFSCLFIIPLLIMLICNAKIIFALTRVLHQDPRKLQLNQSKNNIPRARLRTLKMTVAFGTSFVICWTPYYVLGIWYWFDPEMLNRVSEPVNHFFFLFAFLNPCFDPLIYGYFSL
Description: in vitro test for LHRH antagonist potency (pA2). In kind it is cell-based. The conditions noted are these: negative logarithm of the antagonist concentration required to shift the response curve produced by the agonist leuprolide to two-fold higher concentration. A digest of the protocol: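 Rat LHRH receptor in vitro functional test; pA2 = negative log of the antagonist concentration shifting the leuprolide agonist response curve to two-fold higher concentration.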

Non-standard residues stand in square brackets, D forms with d. Residues, ends and D or L forms follow the SMILES beside them. *: point of attachment. Shikimoyl = O=C(C1=C[C@@H](O)[C@@H](O)[C@H](O)C1)*; dPhe(4-Cl) = N[C@H](Cc1ccc(Cl)cc1)C(=O)O; d2Nal = N[C@H](Cc1ccc2ccccc2c1)C(=O)O; NMeY = CN[C@@H](Cc1ccc(O)cc1)C(=O)O; d3Pal = N[C@H](Cc1cccnc1)C(=O)O; Nicotinoyl = O=C(c1cccnc1)*; Sar = CNCC(=O)O

What is called Kb is the affinity of an antagonist, worked out from how it opposes an agonist. As for `CC(C)C[C@H](NC(=O)[C@@H](CCCCNC(=O)C1=C[C@@H](O)[C@@H](O)[C@H](O)C1)NC(=O)[C@H](Cc1ccc(O)cc1)N(C)C(=O)[C@H](CO)NC(=O)[C@@H](Cc1cccnc1)NC(=O)[C@@H](Cc1ccc(Cl)cc1)NC(=O)[C@@H](Cc1ccc2ccccc2c1)NC(=O)CN(C)C(=O)c1cccnc1)C(=O)N[C@@H](CCCNC(=N)N)C(=O)N1CCC[C@H]1C(=O)N[C@H](C)C(N)=O` [Example 14a, N-Nicotinyl-Sar-D2Nal-D4ClPhe-D3Pal-Ser-NMeTyr-DLys(Shik)-Leu-Arg-Pro-DAlaNH2] (Nicotinoyl-[Sar][d2Nal][dPhe(4-Cl)][d3Pal]S[NMeY][dK](Shikimoyl)LRP[dA]-NH2), the Kb is 0.0132 nM.
Take `CC(C)C[C@H](NC(=O)[C@@H](CCCCNC(=O)C1=C[C@@H](O)[C@@H](O)[C@H](O)C1)NC(=O)[C@H](Cc1ccc(O)cc1)N(C)C(=O)[C@H](CO)NC(=O)[C@@H](Cc1cccnc1)NC(=O)[C@@H](Cc1ccc(Cl)cc1)NC(=O)[C@@H](Cc1ccc2ccccc2c1)NC(=O)CN(C)C(=O)C1=C[C@@H](O)[C@@H](O)[C@H](O)C1)C(=O)N[C@@H](CCCNC(=N)N)C(=O)N1CCC[C@H]1C(=O)N[C@H](C)C(N)=O` [Example 14b, N-Shikimyl-Sar-D2Nal-D4ClPhe-D3Pal-Ser-NMeTyr-DLys(Shik)-Leu-Arg-Pro-DAlaNH2] (Shikimoyl-[Sar][d2Nal][dPhe(4-Cl)][d3Pal]S[NMeY][dK](Shikimoyl)LRP[dA]-NH2): the Kb is 0.105 nM.
The figure for `CC(C)C[C@H](NC(=O)[C@@H](CCCCNC(=O)C1=C[C@@H](O)[C@@H](O)[C@H](O)C1)NC(=O)[C@H](Cc1ccc(O)cc1)N(C)C(=O)[C@H](CO)NC(=O)[C@@H](Cc1cccnc1)NC(=O)[C@@H](Cc1ccc(Cl)cc1)NC(=O)[C@@H](Cc1ccc2ccccc2c1)NC(=O)[C@@H](C)NC(=O)c1cccnc1)C(=O)N[C@@H](CCCNC(=N)N)C(=O)N1CCC[C@H]1C(=O)N[C@H](C)C(N)=O` [Example 14c, N-Nicotinyl-DAla-D2Nal-D4ClPhe-D3Pal-Ser-NMeTyr-DLys(Shik)-Leu-Arg-Pro-DAlaNH2] (Nicotinoyl-[dA][d2Nal][dPhe(4-Cl)][d3Pal]S[NMeY][dK](Shikimoyl)LRP[dA]-NH2) is 0.00537 nM.
With `CC(C)C[C@H](NC(=O)[C@@H](CCCCNC(=O)C1=C[C@@H](O)[C@@H](O)[C@H](O)C1)NC(=O)[C@H](Cc1ccc(O)cc1)N(C)C(=O)[C@H](CO)NC(=O)[C@@H](Cc1cccnc1)NC(=O)[C@@H](Cc1ccc(Cl)cc1)NC(=O)[C@@H](Cc1ccc2ccccc2c1)NC(=O)[C@@H](C)NC(=O)C1=C[C@@H](O)[C@@H](O)[C@H](O)C1)C(=O)N[C@@H](CCCNC(=N)N)C(=O)N1CCC[C@H]1C(=O)N[C@H](C)C(N)=O` [Example 14d, N-Shikimyl-DAla-D2Nal-D4ClPhe-D3Pal-Ser-NMeTyr-DLys(Shik)-Leu-Arg-Pro-DAlaNH2] (Shikimoyl-[dA][d2Nal][dPhe(4-Cl)][d3Pal]S[NMeY][dK](Shikimoyl)LRP[dA]-NH2), the Kb is 0.00891 nM.
The same measure for `CC(C)C[C@H](NC(=O)[C@@H](CCCCNC(=O)C1=C[C@@H](O)[C@@H](O)[C@H](O)C1)NC(=O)[C@H](Cc1ccc(O)cc1)N(C)C(=O)[C@H](CO)NC(=O)[C@@H](Cc1cccnc1)NC(=O)[C@@H](Cc1ccc(Cl)cc1)NC(=O)[C@@H](Cc1ccc2ccccc2c1)NC(=O)[C@@H](CO)NC(=O)c1cccnc1)C(=O)N[C@@H](CCCNC(=N)N)C(=O)N1CCC[C@H]1C(=O)N[C@H](C)C(N)=O` [Example 14e, N-Nicotinyl-DSer-D2Nal-D4ClPhe-D3Pal-Ser-NMeTyr-DLys(Shik)-Leu-Arg-Pro-DAlaNH2] (Nicotinoyl-[dS][d2Nal][dPhe(4-Cl)][d3Pal]S[NMeY][dK](Shikimoyl)LRP[dA]-NH2): 0.0195 nM; for `CC(C)C[C@H](NC(=O)[C@@H](CCCCNC(=O)C1=C[C@@H](O)[C@@H](O)[C@H](O)C1)NC(=O)[C@H](Cc1ccc(O)cc1)N(C)C(=O)[C@H](CO)NC(=O)[C@@H](Cc1cccnc1)NC(=O)[C@@H](Cc1ccc(Cl)cc1)NC(=O)[C@@H](Cc1ccc2ccccc2c1)NC(=O)[C@@H](CO)NC(=O)C1=C[C@@H](O)[C@@H](O)[C@H](O)C1)C(=O)N[C@@H](CCCNC(=N)N)C(=O)N1CCC[C@H]1C(=O)N[C@H](C)C(N)=O` [Example 14f, N-Shikimyl-DSer-D2Nal-D4ClPhe-D3Pal-Ser-NMeTyr-DLys(Shik)-Leu-Arg-Pro-DAlaNH2] (Shikimoyl-[dS][d2Nal][dPhe(4-Cl)][d3Pal]S[NMeY][dK](Shikimoyl)LRP[dA]-NH2): 0.0355 nM.
On to `CC(C)C[C@H](NC(=O)[C@@H](CCCCNC(=O)C1=C[C@@H](O)[C@@H](O)[C@H](O)C1)NC(=O)[C@H](Cc1ccc(O)cc1)N(C)C(=O)[C@H](CO)NC(=O)[C@@H](Cc1cccnc1)NC(=O)[C@@H](Cc1ccc(Cl)cc1)NC(=O)[C@@H](Cc1ccc2ccccc2c1)NC(=O)[C@@H](CCCCNC(=O)c1cccnc1)NC(=O)c1cccnc1)C(=O)N[C@@H](CCCNC(=N)N)C(=O)N1CCC[C@H]1C(=O)N[C@H](C)C(N)=O` [Example 14g, N-Nicotinyl-DLys(Nic)-D2Nal-D4ClPhe-D3Pal-Ser-NMeTyr-DLys(Shik)-Leu-Arg-Pro-DAlaNH2] (Nicotinoyl-[dK](Nicotinoyl)[d2Nal][dPhe(4-Cl)][d3Pal]S[NMeY][dK](Shikimoyl)LRP[dA]-NH2), for which the Kb was 0.11 nM.
Consider `CC(C)C[C@H](NC(=O)[C@@H](CCCCNC(=O)C1=C[C@@H](O)[C@@H](O)[C@H](O)C1)NC(=O)[C@H](Cc1ccc(O)cc1)N(C)C(=O)[C@H](CO)NC(=O)[C@@H](Cc1cccnc1)NC(=O)[C@@H](Cc1ccc(Cl)cc1)NC(=O)[C@@H](Cc1ccc2ccccc2c1)NC(=O)[C@@H](CCCCNC(=O)c1cccnc1)NC(=O)C1=C[C@@H](O)[C@@H](O)[C@H](O)C1)C(=O)N[C@@H](CCCNC(=N)N)C(=O)N1CCC[C@H]1C(=O)N[C@H](C)C(N)=O` [Example 14h, N-Shikimyl-DLys(Nic)-D2Nal-D4ClPhe-D3Pal-Ser-NMeTyr-DLys(Shik)-Leu-Arg-Pro-DAlaNH2] (Shikimoyl-[dK](Nicotinoyl)[d2Nal][dPhe(4-Cl)][d3Pal]S[NMeY][dK](Shikimoyl)LRP[dA]-NH2), for which the Kb was 0.00417 nM.
As for `CC(C)C[C@H](NC(=O)[C@@H](CCCCNC(=O)C1=C[C@@H](O)[C@@H](O)[C@H](O)C1)NC(=O)[C@H](Cc1ccc(O)cc1)N(C)C(=O)[C@H](CO)NC(=O)[C@@H](Cc1cccnc1)NC(=O)[C@@H](Cc1ccc(Cl)cc1)NC(=O)[C@@H](Cc1ccc2ccccc2c1)NC(=O)[C@@H](CCCCNC(=O)C1=C[C@@H](O)[C@@H](O)[C@H](O)C1)NC(=O)c1cccnc1)C(=O)N[C@@H](CCCNC(=N)N)C(=O)N1CCC[C@H]1C(=O)N[C@H](C)C(N)=O` [Example 14i, N-Nicotinyl-DLys(Shik)-D2Nal-D4ClPhe-D3Pal-Ser-NMeTyr-DLys(Shik)-Leu-Arg-Pro-DAlaNH2] (Nicotinoyl-[dK](Shikimoyl)[d2Nal][dPhe(4-Cl)][d3Pal]S[NMeY][dK](Shikimoyl)LRP[dA]-NH2), the Kb was 0.339 nM.
The figure for `CC(C)C[C@H](NC(=O)[C@@H](CCCCNC(=O)C1=C[C@@H](O)[C@@H](O)[C@H](O)C1)NC(=O)[C@H](Cc1ccc(O)cc1)N(C)C(=O)[C@H](CO)NC(=O)[C@@H](Cc1cccnc1)NC(=O)[C@@H](Cc1ccc(Cl)cc1)NC(=O)[C@@H](Cc1ccc2ccccc2c1)NC(=O)[C@@H](CCCCNC(=O)C1=C[C@@H](O)[C@@H](O)[C@H](O)C1)NC(=O)C1=C[C@@H](O)[C@@H](O)[C@H](O)C1)C(=O)N[C@@H](CCCNC(=N)N)C(=O)N1CCC[C@H]1C(=O)N[C@H](C)C(N)=O` [Example 14j, N-Shikimyl-DLys(Shik)-D2Nal-D4ClPhe-D3Pal-Ser-NMeTyr-DLys(Shik)-Leu-Arg-Pro-DAlaNH2] (Shikimoyl-[dK](Shikimoyl)[d2Nal][dPhe(4-Cl)][d3Pal]S[NMeY][dK](Shikimoyl)LRP[dA]-NH2) is 0.759 nM; for `CC(C)C[C@H](NC(=O)[C@@H](CCCCNC(=O)C1=C[C@@H](O)[C@@H](O)[C@H](O)C1)NC(=O)[C@H](Cc1ccc(O)cc1)N(C)C(=O)[C@H](CO)NC(=O)[C@@H](Cc1cccnc1)NC(=O)[C@@H](Cc1ccc(Cl)cc1)NC(=O)[C@@H](Cc1ccc2ccccc2c1)NC(=O)CNC(=O)c1cccnc1)C(=O)N[C@@H](CCCNC(=N)N)C(=O)N1CCC[C@H]1C(=O)N[C@H](C)C(N)=O` [Example 14k, N-Nicotinyl-Gly-D2Nal-D4ClPhe-D3Pal-Ser-NMeTyr-DLys(Shik)-Leu-Arg-Pro-DAlaNH2] (Nicotinoyl-G[d2Nal][dPhe(4-Cl)][d3Pal]S[NMeY][dK](Shikimoyl)LRP[dA]-NH2) it is 0.01 nM; for `CC(C)C[C@H](NC(=O)[C@@H](CCCCNC(=O)C1=C[C@@H](O)[C@@H](O)[C@H](O)C1)NC(=O)[C@H](Cc1ccc(O)cc1)N(C)C(=O)[C@H](CO)NC(=O)[C@@H](Cc1cccnc1)NC(=O)[C@@H](Cc1ccc(Cl)cc1)NC(=O)[C@@H](Cc1ccc2ccccc2c1)NC(=O)CNC(=O)C1=C[C@@H](O)[C@@H](O)[C@H](O)C1)C(=O)N[C@@H](CCCNC(=N)N)C(=O)N1CCC[C@H]1C(=O)N[C@H](C)C(N)=O` [Example 14l, N-Shikimyl-Gly-D2Nal-D4ClPhe-D3Pal-Ser-NMeTyr-DLys(Shik)-Leu-Arg-Pro-DAlaNH2] (Shikimoyl-G[d2Nal][dPhe(4-Cl)][d3Pal]S[NMeY][dK](Shikimoyl)LRP[dA]-NH2) it is 0.02 nM.

The values above are taken from US5502035A, “N-terminus modified analogs of LHRH” (Tap Holdings Inc., priority 1994, dated 1996).
